Reference: patent publication US20230389543A1, “SOLID PHASE MATRIX FOR CROP PROTECTION” (North Carolina State University, priority 2020, published 2023)
“And” between values parts separate entries of the source, which are not always exact repeats. Equal entries are not always repeated.

Assays:
[1] = system: Sweet potatoes (cv. Covington); assay: Sweet potato field trial, yield; assay type: in vivo
Description: (§1) Location: The field trial was conducted on a farm in Woodington, NC. The field was confirmed positive for Meloidogyne enterolobii through NCDA Nematode Assay Lab analysis.
(§2) Trial set-up: Sweet potatoes (cv. Covington) were planted at 11 inch within row spacing and 42 inch rows. Plots were 4 rows wide by 10 ft long, with 10 feet between plots. Plots were maintained by the grower collaborator using standard agronomic practices. Vigor data, soil samples for mid-season nematode counts, and harvest data was collected. At harvest, the middle two rows of each plot were dug by hand and tubers assessed. Data were analyzed, plotted, and effect of treatment on yield and nematode variables was assessed through mean separation in R (v. 3.6.2).
Formulations and Application rates: Six different wrap and plant formulations and 2 control treatment were tested.
For each plot the tuber were collect and sorted into 2 groups: #1 grade and cutters/jumbos. In addition, the number of #1 tubers were counted.

Lesion Nematode = assay: Sweet potato field trial, lesion nematode count at harvest; assay type: in vivo
Description: as §1, §2
(§3) At harvest a soil sample from each plot was collected and 100 cc of soil extracted to determine nematode populations. Three genera of nematode were observed (RKN, stunt and lesion). Counts for the two highest population species, RKN and Lesion at the harvest sampling are reported per 100 g of soil. Population counts of RKN, lesion, and stunt nematode were transformed (log 10(n+1)) prior to analysis to fit assumptions of normality.

Root Knot Nematode = assay: Sweet potato field trial, root knot nematode count at harvest; assay type: in vivo, Meloidogyne enterolobii
Description: as §1, §2, §3

O=C(NCCc1ncc(C(F)(F)F)cc1Cl)c1ccccc1C(F)(F)F [Treatment 3, Fluopyram]
Average Total Yield ([1]; Table 12): 22.1 | Yield #1 Tubers, Average ([1]; average of 4 plots): 9.8 kg | No. of #1 tubers ([1]; single plot): 32 and 36 and 30 and 38 | Total Yield ([1]; single plot): 22.8 kg and 28.05 kg and 20.9 kg and 16.8 kg | Yield of #1 ([1]; single plot): 9.35 kg and 12.15 kg and 9.75 kg and 8.1 kg | Yield of Jumbo & Canners ([1]; single plot): 13.45 kg and 15.9 kg and 11.15 kg and 8.7 kg | Yield #1 Tubers ([1]; single plot, Table 10, listed as Grower Standard): 8.1 kg and 9.4 kg and 12.2 kg and 9.8 kg | Average Lesion Population at Harvest (Lesion Nematode; Table 12): 118.75 /100 cc soil | Lesion Population, Average (Lesion Nematode; average of 4 plots): 118.75 | Average RKN Population at Harvest (Root Knot Nematode; Table 12): 12.5 /100 cc soil | RKN Population, Average (Root Knot Nematode; average of 4 plots): 12.5
